Data published in patent US9434705B2, “L-setastine hydrochloride and preparation method thereof” (ANHUI QINGYUN PHARMACEUTICAL & CHEMICAL CO., LTD., priority 2011, dated 2016).

Key:
guinea pigs [1] = test: histamine-induced death of guinea pigs after oral dosing of test sample; format: in vivo, guinea pig; details: for Number of death: gavage for two days, then histamine 20 mg/kg, deaths within 24 hours, + = died next day; for Death Percentage: histamine 20 mg/kg; for protective effect on histamine-induced death for guinea pigs: 0.16-0.68 mg/kg, result in words
Protocol: 1. Sample name: KL-001 (R-setastine hydrochloride prepared in embodiment 6), KL-002 (L-setastine hydrochloride prepared from embodiment 2, 3, 4, 5, or 6), and KL-003 (setastine hydrochloride racemic) provided by Anhui Kelong medicine research institute).
2. The specifications of content: There are three groups of each sample, which is high, medium, and small-dose group, wherein dosages for high, medium, small-dose group are 0.68 mg/kg, 0.32 mg/kg, and 0.16 mg/kg respectively. The dosages are considerable 20, 10, and 5 times comparing with the clinical dosages.
3. The preparation method for test sample: For the KL-001 sample, 84 ml of distilled water is added to KL-001 sample so as to obtain a large-dose group of KL-001, which is according to the gavage feeding volume of guinea pigs, which is 0.1 ml/100 g, which is the same as 0.68 mg/kg; and medium and small-does group of KL-001 are diluted by the high-dose group of KL-001 for double and quadruple times. For the KL-002 sample, 125 ml of distilled water is added to KL-002 sample to obtain a large-dose group of KL-002, which is according to the gavage feeding volume of guinea pigs, which is 0.1 ml/100 g, which is the same as 0.68 mg/kg; and medium and small-does group are diluted by the high-dose group for double and quadruple times. For KL-003 sample, 75 ml of distilled water is added to KL-003 sample so as to obtain a large-dose group of KL-003, which is according to the gavage feeding volume of guinea pigs, which is 0.1 ml/100 g, which is the same as 0.68 mg/kg; and medium and small-does group of KL-003 are diluted by the high-dose group of Kl-003 for double and quadruple times.
112 guinea pigs are fed in the feeding environment (to adapt in the environment) for three days, and are randomly divided into 10 groups, namely a control group, a high-dose group of KL-001, a medium-dose group of KL-001, a small-dose group of KL-001, a high-dose group of KL-002, a medium-dose group of KL-002, a small-dose group of KL-002, a high-dose group of KL-003, a medium-dose group of KL-003, and a small-dose group of KL-003. The dosage for high-dose group of Kl-001, KL-002, and Kl-003 is 0.68 mg/kg, and the dosage for medium-dose group of Kl-001, KL-002, and Kl-003 is 0.32 mg/kg, and the dosage for small-dose group of Kl-001, KL-002, and Kl-003 is 0.16 mg/kg, which are 20, 10, 5 times respectively comparing with the clinical dose. Each guinea pig from each group is fed by corresponding amounts of test sample for two days, which is according to the amount of 0.1 ml/100 g. Finally, each guinea pig is fed with lethal dose of histamine, which is 20 mg/kg after the last injection of test sample, and then observing the number of deaths of guinea pigs within 24 hours.

[2] = inventors' finding on antihistaminic effect and sedation of D-setastine hydrochloride; details: result in words
patients = details: racemic drug, China market; cited from earlier work
guinea pigs [3] = details: background statement; cited from earlier work

Row | SMILES | Number of death (guinea pigs [1]; 0.16 mg/kg (small dose)) | Death Percentage (guinea pigs [1]; 0.16 mg/kg (small dose)) [%] | Number of death (guinea pigs [1]; 0.32 mg/kg (medium dose)) | Death Percentage (guinea pigs [1]; 0.32 mg/kg (medium dose)) [%] | Number of death (guinea pigs [1]; 0.68 mg/kg (high dose)) | Death Percentage (guinea pigs [1]; 0.68 mg/kg (high dose)) [%] | protective effect on histamine-induced death for guinea pigs (guinea pigs [1]) | protective effect on histamine-induced death for guinea pigs (guinea pigs [1]; listed as D-setastine hydrochloride) | protective effect on histamine-induced death for guinea pigs (guinea pigs [1]; listed as Kl-001) | antihistaminic effect [2] | side effects of sedation [2] | protective effect on histamine-induced death for guinea pigs (guinea pigs [1]; listed as setastine hydrochloride racemic) | sedative side effects in clinical use (patients) | histamine-induced bronchial spasms (guinea pigs [3]) | protective effect on histamine-induced death for guinea pigs (guinea pigs [1]; listed as L-setastine hydrochloride) | protective effect compared with setastine hydrochloride racemic (guinea pigs [1]; comparison in words)
1 | CC(OCCN1CCCCCC1)(c1ccccc1)c1ccc(Cl)cc1.Cl (stereo not drawn) | 11 | 100 | 11 | 100 | 11 | 100 | doesn't has the protective effect | no protective effect | doesn't has protective effect | no antihistaminic effect | can produce side effects of sedation | – | – | – | – | –
2 | CC(OCCN1CCCCCC1)(c1ccccc1)c1ccc(Cl)cc1 (racemic) [KL-003] | 6 + 2 | 66 | 3 + 1 | 36 | 1 + 1 | 16 | significant protective effect | – | – | – | – | have protective effects | stronger sedative side effects | inhibit | – | –
3 | C[C@@](OCCN1CCCCCC1)(c1ccccc1)c1ccc(Cl)cc1 [KL-002] | 4 + 1 | 45 | 2 | 18 | 0 | 0 | significant protective effect | – | – | – | – | – | – | – | have protective effects | stronger
